Measured values: US12376594B2, “Pest control kit and method” (priority 2019, dated 2025)

Assays:
[1] = test system: Welsh chafer, Hoplia philanthus grubs; experiment: Field trial, control of chafer grubs in golf course; format: in vivo; conditions: The Grove Golf Club, nematodes 2.5 billion per hectare twice weekly, Chlorpyrifos 2 litres a.i. per hectare once
Method: Trial was conducted at The Grove Golf Club, Watford, London, UK between May 2017 and October 2018. Treatments consisted of: Heterorhabditis bacteriophora 2.5 billion/ha applied alone, Pest control kit-C 2.5 billion/ha applied with Wetting agent composition (10 L/ha) and Chlorpyrifos (Equity) 2 L a.i./ha. All treatments were applied using soil injector followed conventional boom sprayer. Soil samples were taken at 2, 4, 6, and 8 weeks post application to assess grub population.
Field trials were conducted on a naturally infested tees, green and fairways containing a mixture of Welsh chafer, Hoplia philanthus (90%), Garden chafer, Phyllopertha horticola (3%), Summer chafer, Amphimallon solstitialis (1%), May beetle, Melolontha (4%) and wireworms Agriotes species (3%) at The Grove Golf Club, Watford, and Ashridge Golf Club, Berkhamsted, UK. […] No natural nematodes were detected by baiting soil samples with Galleria mellonella larvae.
One week before treatment, the pre-treatment larval density was determined in tees, greens and fairways (see FIG. 4) by taking three 16×16×10 to 15 cm soil plugs with a shovel or golf Hole Cutter (10 cm diameter). The living larvae were counted and expressed as number of larvae per square meter. […]
The treatments included: • 1. […] The larval density after treatment was determined 2, 4, 6, or 8 weeks after nematode or chlorpyrifos application. […]

sciarid fly larvae = experiment: Field trial, control of sciarid fly larvae in mushroom production; format: in vivo, Lycoriella spp.; conditions: first week of application
Method: Treatments consisted of: Carbofuran, Teflubenzuron, Steinernema feltiae alone or with Wetting agent composition (as Pest control kit-S). Trial was conducted in mushroom production farm in UK in 2016-17. Mushrooms were naturally infected with sciarid larvae and numbers counted week 1 and 3 post treatments. Each treatment was replicated 4 times with 15 plants/treatment.
Fungus gnats, also known as sciarid flies, found on and around growing media, are a major pest for greenhouse and polytunnel ornamental crops. The sciarid fly larvae are responsible for causing damage to an extensive variety of economically important potted plants directly through feeding on roots and stalk tissue of seedlings, cuttings and younger plants. They also cause damage indirectly through the transmission of fungal disease through the wounds caused by sciarid larvae. Pot plants known to be susceptible to sciarid attack include Poinsettia, Azalea, Cyclamen, Kalanchoe, Exacum, Gerbera, Begonia and others. All kinds of young plants and young rooted cuttings (vegetables, ornamentals and young nursery plants) are highly susceptible to sciarid larvae. […] Mushrooms were harvested for up to 4 weeks and number of dead and live larvae were counted. […]
The number of surviving larvae was transformed into percentage efficacy using the equation below and analysed using analysis of variance (ANOVA). […]

SMILES: CCOP(=S)(OCC)Oc1nc(Cl)c(Cl)cc1Cl [Chlorpyrifos]
- Control of chafer grubs [1]: 62%

SMILES: O=C(NC(=O)c1c(F)cccc1F)Nc1cc(Cl)c(F)c(Cl)c1F [Teflubenzuron]
- Sciarid fly larvae control (sciarid fly larvae): 71%
